From a melting point compilation (Tetko et al.; mined from patent text by program, amines drawn as free bases though some values may be those of a salt) come the findings set out here.

One may read the melting point as the temperature of the solid-liquid transition.

Molecules are shown by their SMILES. Some results are limits rather than exact numbers.

Regarding `O=C1CC=CC(C(=O)O)C1` (centres undefined), the melting point lay in the range of 98 to 101 °C. `CCN(CC(F)(F)F)c1cccc([N+](=O)[O-])c1`: the melting point was 66 °C.

Molecule `Nc1cc2oc(=O)[nH]c2cc1[N+](=O)[O-]` yielded a melting point of 198 °C. In turn, `CCC(=O)N(CC)c1cccc(-c2ccc3nnc(N)n3n2)c1` came in with a melting point of 199 to 200 °C. On to `Cn1cnc(-c2ccc(NC(=C3C(=O)Oc4ccccc43)c3ccc(C4(N)CC4)cc3)cc2)c1`, for which the melting point is 190 to 191 °C.

`OCCN1CCN(c2ccc(Nc3ncc4ccc(-c5cccnc5)n4n3)cc2)CC1` returned a melting point of 189 to 190 °C. The figure for `COc1ccc(-c2nc(C(=O)N(C)C)c3c4ccc(Cl)cc4n(C)c3n2)cn1` is 267 to 268 °C; for `Cc1ccc(C)n1-c1ccc(C(C)NO)cc1` (centres undefined) it is 109 to 111 °C; for `O=C1C(=Cc2ccccc2)C(=O)c2ccccc21` it is 150 °C.

`CC1(c2ccc3noc(-c4ccccc4)c3c2)OCCO1` showed a melting point of 69 to 71 °C.

`Nc1cc2nc(O)c(O)nc2c2c1CCCC2` returned a melting point of more than 300 °C. The figure for `CN1C(=O)CC[C@]2(C)c3ccc(Sc4ccccc4)cc3CC[C@@H]12` is 109 to 112 °C; for `O=C(CCc1ccccc1)Oc1n[nH]c(=O)c2nc3cc(Cl)cc(Cl)c3c(O)c12` it is more than 395 °C; for `CC(C)(C)[C@H](COC(=O)OCc1ccccc1)NC(=O)[C@@H](CC(=O)OCc1ccccc1)n1ccc(-c2ccc(-c3ccncc3)cc2)c1` it is 74 to 76 °C. For `CCOC(=O)c1ncn(-c2ccc(C(F)(F)F)cc2N)c1C`, the melting point lay in the range of 185 to 186 °C. The figure for `c1ccc2c(OCCNCCCc3c[nH]c4ccccc34)cccc2c1` is 119 to 120 °C; for `COc1ccc(N2CCCN(/C(C)=C(/C#N)C(N)=S)CC2)cc1` it is 157 to 158 °C.

The molecule `COc1ccc2[nH]ccc2c1OCc1ccccc1` had a melting point of 83 to 84 °C. The figure for `CCCCC12COC(c3ccc(Br)cc3)(OC1)SC2` is 110 to 112 °C; for `Cc1c(C(=O)Nc2ccc(N3CCC(N4CCOCC4)CC3)c([N+](=O)[O-])c2)cnn1-c1ccc(Cl)cc1` it is 195 to 200 °C; for `CS(=O)(=O)c1ccc(-c2oncc2C(=O)C2CC2)cc1Cl` it is 148 to 150 °C. `CCCCNC(=O)C1=C(C(=O)Nc2cc(OC3CCCC3)c(Cl)cc2F)CCCC1` yielded a melting point of 142 to 144 °C. With `Cc1c(CO)sc2c(Br)cccc12`, the melting point was 129 to 130 °C.

`O=C(O)COc1cccc(C=Cc2nc(-c3ccccc3)c(-c3ccccc3)o2)c1` registered a melting point of 213 to 215 °C. The molecule `Cn1c(-c2ccccc2F)n[nH]c1=S` registered a melting point of 137 to 139 °C. In the case of `COC(=O)Nc1nc2cc(-c3noc4ccccc34)ccc2[nH]1`, the melting point was more than 300 °C. As for `O=C(N[C@H](Cc1ccc(Cl)c(OC(F)(F)C(F)F)c1)[C@@H](O)c1ccc(F)cc1)c1ccc(F)c2ccccc12` (racemic), the melting point was in the range of 206 to 207 °C. As to `CCc1cccc(CSC)c1NC(=O)CC1c2ccccc2Oc2ccccc21`, the melting point lay within 122 to 123 °C.

Consider `COCCn1c(C)cc(C(=O)c2cccc(Cl)c2)c1C`, for which the melting point was in the range of 112 to 113 °C. Take `CCCOc1ccccc1-c1nc2nc(-c3ccccc3)ncc2c(=O)[nH]1`: the melting point is 203 to 204 °C. With `COc1cc(C(=O)O)cc2ccc(-c3ccc4c(c3)C(C)(C)CCC4(C)C)cc12` the figure was 242 °C. `Cc1c(C(=O)Cl)cccc1S(=O)(=O)CCCl` came in with a melting point of 67 to 70 °C. In turn, `Cc1nc(N)c2nc(C)n(NC3CCCCC3)c2c1C` yielded a melting point of 242 to 244 °C. With `OC1CC2(CCNC2)c2ccc(Cl)c(Cl)c21` (centres undefined) the figure was 167 to 170 °C; with `CC(=O)OCCn1ccc(=O)c(OCc2ccccc2)c1C(OC(C)=O)c1cccc(F)c1` (centres undefined), 148 to 149 °C; with `CCOCCOc1c(C)cc(-c2ccc3c(c2)C=C(C(=O)Nc2ccc(CN(C)C4CCOCC4)cc2)CCS3(=O)=O)cc1C`, 211 to 212 °C. With `Cc1nccn1-c1ccc(OCCO)cc1` the figure was 125 to 127 °C; with `O=S(=O)(Nc1cccc(Cl)c1F)c1cc(S(=O)(=O)Nc2cccc(Cl)c2F)c2cc(O)ccc2c1`, 126 to 128 °C; with `CCCCc1nc(CO)c(SCC)n1Cc1ccc(-c2ccccc2C(=O)OC)cc1`, 110 °C. `COc1ccc(Cn2c3c(ccc2=O)C(C)NC(SC)=N3)cc1Cl` (centres undefined) gave a melting point of 184 to 186 °C. `C=CCOc1ccc(-c2ccc(O)cc2)cc1`: the melting point fell in the range of 168 to 170 °C. Molecule `NC(CCNc1ccc(C(O)(C(F)(F)F)C(F)(F)F)cc1)c1ccc(F)cc1` (centres undefined) displayed a melting point of 136 to 137 °C. For the molecule `CCc1cc2c(s1)-n1c(C)nnc1C(CC(=O)Nc1ccccc1)N=C2c1ccc(Cl)cc1` (centres undefined), the melting point lay in the range of 238 to 239 °C. With `CCn1c(=O)c2c(nc(/C=C/c3cc(C)c(OC)cc3C)n2C)n(CC)c1=O` the figure was 235 to 236 °C; with `CCc1ccc(S(=O)(=O)Nc2ccc(Cl)cc2)cc1`, 120 to 122 °C.

As for `CC(=O)NS(=O)(=O)c1ccc(-n2cc(C)cc2-c2ccc(C)c(C)c2)cc1`, the melting point is 192 to 193 °C. With `CS(=O)C1C(=O)Nc2ccc(C(F)(F)F)cc21` (centres undefined) the figure was 141 to 142 °C; with `Brc1ccc(-c2cc3cc(-c4ccccc4)ccc3o2)cc1`, 90 to 92 °C. On to `Cn1c(CNCC2CCOCC2)cc2cc(NC(=O)c3ccc(OC[C@@H]4CCCO4)cc3)ccc21`, for which the melting point fell in the range of 157 to 158 °C. For the molecule `Cn1c(C(F)(F)F)cc(=O)n(-c2ccc3snc(C4(O)N=C(c5ccccc5)NC4=O)c3c2)c1=O` (centres undefined), the melting point fell in the range of 139 to 141 °C. Regarding `CC(=O)C(=Cc1cccc([N+](=O)[O-])c1)C(=O)OCCCl`, the melting point fell in the range of 95 to 97 °C. With `CCOC(=O)C(CC)Oc1cccc(N2CCN(c3ccncc3)CC2)c1` (centres undefined) the figure was 160 to 162 °C; with `COc1cc(C)nc(-n2nc(C)n(NS(=O)(=O)c3ccccc3OC(F)(F)F)c2=O)n1`, 248 °C. The figure for `NS(=O)(=O)c1ccc(-n2nc(C(F)(F)F)cc2-c2ccc(Cl)cc2Cl)cc1` is 153 to 155 °C. With `COc1cc(CC(=O)Nc2nn(-c3ccccc3)cc2C=O)ccc1OCc1nc(-c2ccccc2)oc1C` the figure was 156 to 158 °C. Molecule `COC(=O)CCc1ncc2c(c1C(=O)OC)CCO2` displayed a melting point of 80 to 81 °C.

With `CC(C)(C)c1cc(SCCSCC(=O)O)cc(C(C)(C)C)c1O`, the melting point was determined as 86 °C. `O=C1c2cc([N+](=O)[O-])ccc2OCN1CCO[N+](=O)[O-]` came in with a melting point of 97 to 99 °C. With `CCOC(=O)c1ccc(Oc2ccccc2C(=O)O)cc1` the figure was 152 to 153 °C; with `CC(=O)c1ccc(Nc2c(F)c(F)cc(F)c2F)c(CC(=O)N(C)C)c1`, 112 to 114 °C.

For the molecule `CCOC12CCC(=O)C3(C)Oc4c(OC)ccc5c4C31CCN(CCc1ccccc1)C2C5` (centres undefined), the melting point lay in the range of 86 to 89 °C.

For `COC(C)c1cc(S(N)(=O)=S)sc1C` (centres undefined), the melting point lay in the range of 86 to 94 °C. With `CN1CCCCC1=NC(=O)Nc1ccccc1` the figure was 145 to 158 °C. The figure for `Cc1ccc(S(=O)(=O)N2CCCC2c2ccsc2)cc1` (racemic) is 114 °C; for `N#Cc1ccc(CNC(=O)c2cccc(C#CCn3ccnn3)c2)cc1` it is 145 to 147 °C; for `FC(F)(F)c1ccc(CCl)cc1` it is 224 to 228 °C. The figure for `COc1ccc(C(=O)c2c(-c3ccc(O)cc3)sc3cc(O)ccc23)cc1` is 138 to 140 °C. On to `CC(=O)OCc1cc(=O)n2ccsc2n1`, for which the melting point was in the range of 144 to 145 °C.

`CCCCc1oc2ccccc2c1C(=O)Nc1ccc2c(Br)c(O)ccc2c1` registered a melting point of 195 to 197 °C. With `S=C(Nc1cc(Cl)cc(Cl)c1)Nc1cc(OCc2cccc3ccccc23)ccc1Br` the figure was 149 to 151 °C. With `CC(C)(C)c1ccc(S(=O)(=O)NCc2ccc(C(=O)O)cc2)cc1` the figure was 290 to 291 °C; with `Cc1c(NCC(C)(C)NC(=O)OC(C)(C)C)c([N+](=O)[O-])c2nnnn2c1C`, 153 to 155 °C. The figure for `C=CC(=O)OCCCCC[C@H]1CC[C@H](c2cccc(F)c2F)CC1` is 29.6 to 30.7 °C. Consider `Cc1ccc(C(=O)c2ccc(F)cc2C)c(F)c1`, for which the melting point is 29 to 31 °C. The figure for `CC(C)(C)C(Cl)=C(C#N)C#N` is 52 to 53 °C. With `COc1cc(-c2nc(Nc3ccc(C)cc3)c3ccccc3n2)cc(OC)c1OC` the figure was more than 250 °C; with `COc1ccccc1NC(=S)NC(NC(=O)c1ccc(C)cc1)C(F)(F)F` (centres undefined), 212 to 214 °C; with `O=c1c2ccccc2n(Cc2ccccc2)c2cc(Cl)ccc12`, 134 to 136 °C.

In turn, `Cc1ccc(OCCCCCCN2CCN(c3nccs3)CC2)cc1` returned a melting point of 37 to 39 °C. Regarding `CCOC(=O)C1=C(N)N=C(SCC)C(C(=O)OCC)C1c1cccc(C#N)c1` (centres undefined), the melting point is 153 °C.

In the case of `N#CCC(C#N)NNc1ccccc1` (centres undefined), the melting point was 97 to 98 °C. In turn, `Cn1ncc2c1-c1ccc(Cl)cc1C(c1ccccc1F)=NC2` displayed a melting point of 128 to 130 °C.

For the molecule `CCCc1nc2ccnn2c(O)c1Cc1ccc(-c2ccccc2C#N)cc1`, the melting point stood at 251 °C.

`OCc1cc(-c2ccc3nnn(Cc4ccc5ncccc5c4)c3n2)cs1`: the melting point was in the range of 188 to 191 °C. The figure for `COC(=O)c1ccccc1-c1cc(-c2ccccn2)on1` is 54 to 57 °C; for `COc1ccc(-c2sc3c(c2CN(C)Cc2ccccc2)c(=O)c(C(C)=O)cn3Cc2ccccc2F)cc1` it is 185 to 193 °C. With `CC(=O)OCC(ON1C(C)(C)CC(OC(=O)C(C)(C)C)CC1(C)C)c1ccccc1` (centres undefined) the figure was 102 to 103 °C; with `Fc1cccc(C2=NOCCS2)c1`, 47 to 49 °C; with `CCNC(=O)c1ccc(OCC(O)c2ccc3c(c2)C(C)(C)CCC3(C)C)cc1O` (centres undefined), 65 to 70 °C.
